Measured values taken from publication PMC4677828 (Combinatorial chemistry & high throughput screening, 2015).

Legend:
Assay type in all cases: biochemical
HDAC1 = HDAC1 (Homo sapiens, UniProt Q13547); assay: single-concentration inhibition assay; settings: 100 μM inhibitor
HDAC6 = biological target: T1, HDAC6 (Homo sapiens, UniProt Q9UBN7); assay: single-concentration inhibition assay; settings: 100 μM inhibitor
T1 sequence (Q9UBN7 1-1215): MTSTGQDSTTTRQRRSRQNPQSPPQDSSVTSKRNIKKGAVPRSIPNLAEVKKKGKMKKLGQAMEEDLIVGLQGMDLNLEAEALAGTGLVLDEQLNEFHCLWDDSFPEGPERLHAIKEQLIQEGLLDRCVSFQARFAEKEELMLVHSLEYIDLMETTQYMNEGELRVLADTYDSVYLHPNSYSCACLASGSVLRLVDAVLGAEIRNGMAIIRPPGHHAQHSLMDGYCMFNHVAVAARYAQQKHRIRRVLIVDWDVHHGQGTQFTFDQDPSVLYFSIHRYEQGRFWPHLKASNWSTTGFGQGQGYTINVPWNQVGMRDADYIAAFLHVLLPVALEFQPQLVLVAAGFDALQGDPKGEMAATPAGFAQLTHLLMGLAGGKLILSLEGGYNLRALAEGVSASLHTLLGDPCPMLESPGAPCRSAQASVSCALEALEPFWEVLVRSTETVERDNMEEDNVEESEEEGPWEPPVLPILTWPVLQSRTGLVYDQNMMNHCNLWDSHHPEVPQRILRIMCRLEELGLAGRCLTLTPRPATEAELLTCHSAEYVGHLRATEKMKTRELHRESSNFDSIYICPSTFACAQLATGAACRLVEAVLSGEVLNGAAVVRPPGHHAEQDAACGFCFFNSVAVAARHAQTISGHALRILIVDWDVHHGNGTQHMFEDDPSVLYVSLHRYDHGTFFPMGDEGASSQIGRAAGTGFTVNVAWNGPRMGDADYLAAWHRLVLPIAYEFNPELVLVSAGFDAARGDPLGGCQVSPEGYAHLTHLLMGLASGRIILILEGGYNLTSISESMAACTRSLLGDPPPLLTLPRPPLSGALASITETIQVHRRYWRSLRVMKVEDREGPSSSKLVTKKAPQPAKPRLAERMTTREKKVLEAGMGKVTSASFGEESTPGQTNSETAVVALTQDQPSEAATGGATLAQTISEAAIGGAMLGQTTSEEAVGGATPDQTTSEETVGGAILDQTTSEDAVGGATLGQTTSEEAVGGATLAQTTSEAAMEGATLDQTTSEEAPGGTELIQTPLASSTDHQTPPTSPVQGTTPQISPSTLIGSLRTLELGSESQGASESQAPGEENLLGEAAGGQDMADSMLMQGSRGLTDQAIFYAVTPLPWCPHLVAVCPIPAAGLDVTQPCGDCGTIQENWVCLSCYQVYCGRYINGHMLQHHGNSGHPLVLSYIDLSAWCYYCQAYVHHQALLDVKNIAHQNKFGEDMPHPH

HDAC2 = HDAC2 (Homo sapiens, UniProt Q92769); assay: fluorogenic HDAC assay; settings: 5 μL of 200 μM HDAC substrate in 50 μL; 30 min pre-incubation; 37 °C; BSA
Sequence of HDAC2 (Q92769 whole entry): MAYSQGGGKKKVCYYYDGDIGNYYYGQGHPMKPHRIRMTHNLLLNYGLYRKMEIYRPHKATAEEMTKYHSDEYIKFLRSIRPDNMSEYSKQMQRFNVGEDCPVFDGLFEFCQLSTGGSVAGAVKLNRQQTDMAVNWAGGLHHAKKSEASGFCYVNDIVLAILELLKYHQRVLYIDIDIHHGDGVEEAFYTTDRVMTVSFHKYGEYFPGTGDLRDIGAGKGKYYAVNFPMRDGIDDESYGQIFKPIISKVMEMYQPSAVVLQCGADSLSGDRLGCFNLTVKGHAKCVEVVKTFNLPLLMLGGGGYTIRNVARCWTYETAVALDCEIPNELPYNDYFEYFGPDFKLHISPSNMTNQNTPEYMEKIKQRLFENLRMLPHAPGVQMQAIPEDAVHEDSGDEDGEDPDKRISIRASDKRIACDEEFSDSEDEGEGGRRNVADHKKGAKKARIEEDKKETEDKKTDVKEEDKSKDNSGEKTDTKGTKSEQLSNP

Sequence of HDAC1 (Q13547 whole entry): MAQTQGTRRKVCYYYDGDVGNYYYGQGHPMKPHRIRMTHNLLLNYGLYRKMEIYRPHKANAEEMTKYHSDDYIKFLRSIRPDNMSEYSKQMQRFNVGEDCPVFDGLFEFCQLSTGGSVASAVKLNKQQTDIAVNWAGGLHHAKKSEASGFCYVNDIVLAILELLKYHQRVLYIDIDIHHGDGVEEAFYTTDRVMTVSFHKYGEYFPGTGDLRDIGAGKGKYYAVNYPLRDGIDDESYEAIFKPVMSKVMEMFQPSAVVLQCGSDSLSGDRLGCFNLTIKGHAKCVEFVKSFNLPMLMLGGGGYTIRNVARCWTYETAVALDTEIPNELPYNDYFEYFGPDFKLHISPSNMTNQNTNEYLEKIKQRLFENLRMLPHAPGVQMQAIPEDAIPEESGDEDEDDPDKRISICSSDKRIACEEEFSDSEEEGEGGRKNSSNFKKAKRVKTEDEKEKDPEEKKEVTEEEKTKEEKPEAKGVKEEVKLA

ST088357
% inhibition at 100 μM (HDAC1): 86.90%
% inhibition at 100 μM (HDAC6): 34.28%
IC50 (HDAC2): 16.9 µM
